Results reported in patent US11384113B2, “Cobalamin derivatives and their use for the treatment of diseases caused by lack of vitamin B12 supply” (Albert-Ludwigs-Universitaet Freiburg, priority 2017, dated 2022).
Substitutions are numbered along the chain they refer to. Where two headings read alike, the source gives them in different places.

Columns and labels:
[1] = pH 7.72, l = 0.5, KNO3; cited from earlier work
human wild type CblC = biological target: T1, human wild type CblC (Homo sapiens, UniProt Q9Y4U1); test: Binding to CblC and conversion to base-off configuration (UV-visible spectrophotometry); details: pH 7.6, EPPS buffer 0.04 M
T1 sequence (Q9Y4U1 1-282): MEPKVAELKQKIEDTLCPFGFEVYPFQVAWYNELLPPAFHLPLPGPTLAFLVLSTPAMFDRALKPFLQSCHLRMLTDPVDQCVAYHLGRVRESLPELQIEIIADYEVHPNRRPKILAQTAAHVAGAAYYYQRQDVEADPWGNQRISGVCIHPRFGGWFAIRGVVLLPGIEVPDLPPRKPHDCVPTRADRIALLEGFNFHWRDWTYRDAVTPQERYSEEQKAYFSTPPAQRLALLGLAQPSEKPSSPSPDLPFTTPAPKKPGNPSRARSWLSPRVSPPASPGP
Procedure: An important aspect for the bioactivity of the new compounds is their ability to bind to the processing enzyme CblC, and to undergo conversion to the base-off configuration, which enhances their reactivity. This is a critical step in all intracellular pathways of vitamin B12 metabolism that are involved in pathogenesis, and certainly, relevant to the cblC disease itself. […] Binding studies were conducted at pH 7.6 (EPPS buffer, 0.04 M) and analyzed by UV-visible spectrophotometry.

[2] = test system: fibroblasts from healthy subjects; test: MMA in conditioned medium of control fibroblasts; assay type: cell-based, human
From the text: (§1) Cultured cells from control (healthy neonatal subjects) or cblC fibroblasts were supplemented without exogenous Cbl (negative control), with commercial CNCbl (current therapy control) or with the newly synthesized cobalamins (test group). The ability of these compounds to support intracellular Cbl metabolism in the absence of CblC was examined by monitoring disease biomarker metabolites Hcy and MMA levels in the conditioned medium.
(§2) The cellular response to treatment with new derivatives CyaCbl and MPGCbl in comparison with current therapeutic form CNCbl was measured. The ability of the new cobalamin derivatives CyaCbl and MPGCbl to achieve metabolic control, i.e. reduction of for example MMA production by cblC fibroblasts in culture, was examined as described in previously published experimental protocols. FIG. 13 provides a comparison of the effect of CNCbl (0.001 mM) versus the same dose of CyaCbl or MPGCbl given to cultured fibroblasts from healthy subjects (HFF, NHDF, PCS, Wiesel, Control) or from cblC patients (WG1801, WG2176, WG3354, GM10011, GM02345B, GM02452C).
(§3) Additional examination of the effect of thiolatocobalamins CyaCbl and MPGCbl and sulfur-containing alkylcobalamin Me-S-MeCbl with respect to structural analogues that are NOT available for therapy was also carried out, for comparative purposes. The results of cellular response (healthy controls and cblC patient fibroblasts) to cobalamin treatment, as reflected by MMA levels is provided in Table 6.

[3] = Concentration-dependent reaction rate of aquacobalamin with thiol ligand forming thiolatocobalamin (time-resolved UV-visible spectroscopy); assay type: physicochemical; details: pH 7.2, l = 1, sodium triflate
Procedure: The UV-visible spectra of newly synthesized cobalamin derivatives was determined in EPPS buffer (40 mM, pH 7.6, l=1.0 M with sodium triflate). The reaction of aquacobalamin with cysteamine and mercaptopropionylglycine was monitored by time-resolved spectral scanning of reactions containing a fixed amount of aquacobalamin (10-25 μM (micromolar)) and various concentrations of the ligand.
Mercaptopropionylglycine reacted readily with aquacobalamin to form a stable MPGCbl complex at pH 7.2.
A fixed concentration of aquacobalamin was reacted with varying concentrations of the ligand MPG. The reaction was monitored by time-resolved UV-visible spectroscopy for a total of 50 minutes (FIG. 5). The spectral changes were consistent with the conversion of aquacobalamin into MPGCbl (FIG. 5 a) via a mechanism that involves no detectable reaction intermediates. Initial and final spectra are analyzed to confirm the identity of the thiolatocobalamin product (FIG. 5 b). Time courses were generated at the absorption maxima of each species (350 nm, H2OCbl^+, and 372 nm, MPGCbl) (FIG. 5 c).

cultured fibroblasts = test: Cytotoxicity and cellular transport observed in cultured fibroblast experiments; assay type: cell-based, human; details: for Transport into the cells: canonical TC transporter and its cellular receptor CD320; for Cytotoxicity: under the experimental conditions of the fibroblast cultures
[4] = biological target: T2, human recombinant CblC wild type (Homo sapiens, UniProt Q9Y4U1); assay type: biochemical; details: for Product of the reaction: cobalamin bound to human CblC, in the presence of GSH; for Half-life of beta-axial ligand removal, Wild type CblC: human, pH 7.6
T2 sequence (Q9Y4U1 1-282): T1 sequence (Q9Y4U1 1-282)
Procedure: (§4) The ability of the newly synthesized Cbl derivatives to serve as substrates for CblC was examined (FIG. 12). CblC activity was measured by UV-visible spectroscopy according to published procedures. Analysis of reaction products was performed by mass spectrometry. We measured dealkylation and de-thiolation of Co—C and Co—S bonded Cbl derivatives, respectively, by wild type and mutant CblC proteins to determine whether these reactions could be supported in patients harboring an abnormal isoform of CblC with low or no enzymatic activity.
The enzymatic activity of CblC in the presence of CyaCbl and MPGCbl as substrates was evaluated under the same experimental conditions utilized to examine dealkylation of MeCbl and AdoCbl. […] The reaction was complete in less than 10 seconds, which is the time it takes to record the first spectrum after mixing of CblC-bound to CyaCbl or MPGCbl with 5 mM GSH (FIG. 12).
(§5) First, the ability of novel cobalamins described herein was tested to act as substrate for wild type CblC and to restore the lost activity of pathogenic variants, such as mutant Arg161Gly, that leads to early-onset form of the cblC disease.

[5] = test system: fibroblasts isolated from patients with cblC disease; test: MMA in conditioned medium of cblC patient fibroblasts; assay type: cell-based, human; details: for Reduction of MMA to the levels of healthy fibroblasts, compared with CNCbl: 0.001 mM, same dose as CNCbl, FIG. 13
From the text: as §1, §2, §3

[6] = biological target: T2, human recombinant CblC wild type; assay type: biochemical; details: dethiolation; 50 μM GSH
[7] = biological target: T3, human recombinant CblC pathogenic mutant Arg161Gly (Homo sapiens, UniProt Q9Y4U1, R161G); assay type: biochemical; details: for Product under ambient conditions, Mutant Arg161Gly: dethiolation, 50 μM GSH; for Half-life of beta-axial ligand removal, Mutant Arg161Gly: human, pH 7.6
T3 sequence (Q9Y4U1 1-282 R161G): T1 sequence (Q9Y4U1 1-282) with R161G
Procedure: as §4, §5

[8] = UV-visible spectrum of purified cobalamin in water (base-off configuration without CblC); assay type: physicochemical; details: after acetone precipitation and vacuum filtration
[9] = Controls (group value), after 7 days
[10] = Controls, after 7 days wash-off period without supplemental cobalamin
[11] = HFF control fibroblasts, after 7 days
[12] = NHDF control fibroblasts, after 7 days
[13] = Wiezel control fibroblasts, after 7 days
[14] = GM02345B cblC fibroblasts, after 7 days
[15] = GM02452C cblC fibroblasts, after 7 days
[16] = GM10011 cblC fibroblasts, after 7 days
[17] = WG1801 cblC fibroblasts, after 7 days
[18] = WG2176 cblC fibroblasts, after 7 days
[19] = WG3354 cblC fibroblasts, after 7 days
[20] = cblC patients (group value), after 7 days
[21] = cblC patients, after 7 days wash-off period without supplemental cobalamin

Row | SMILES | K, concentration-dependent reaction rate (formation from aquacobalamin) [1] | Effect of binding to human wild type CblC on configuration (human wild type CblC) | MMA in conditioned medium [2, 9] | MMA in conditioned medium [2, 10] | MMA in conditioned medium [2, 11] | MMA in conditioned medium [2, 12] | MMA in conditioned medium [2, 13] | K, concentration-dependent reaction rate (formation from aquacobalamin) [3] | Half-life of beta-axial ligand removal, Wild type CblC [4] | MMA in conditioned medium [5, 14] | MMA in conditioned medium [5, 15] | MMA in conditioned medium [5, 16] | MMA in conditioned medium [5, 17] | MMA in conditioned medium [5, 18] | MMA in conditioned medium [5, 19] | MMA in conditioned medium [5, 20] | MMA in conditioned medium [5, 21] | Product under ambient conditions, Wild type CblC [6] | Product under ambient conditions, Mutant Arg161Gly [7] | Half-life of beta-axial ligand removal, Mutant Arg161Gly [7] | also measured
1 | CC(C[S][Co+2])C(=O)N1CCCC1C(=O)O.CC1=C2N=C(C=C3N=C(C(C)=C4[N-]C(C(CC(N)=O)C4(C)CCC(=O)NCC(C)OP(=O)([O-])OC4C(CO)OC(n5cnc6cc(C)c(C)cc65)C4O)C4(C)N=C1C(CCC(N)=O)C4(C)CC(N)=O)C(CCC(N)=O)C3(C)C)C(CCC(N)=O)C2(C)CC(N)=O (centres unmarked) [CaptoprilCbl] | 24.7 M⁻¹ s⁻¹ |  |  |  |  |  |  |  |  |  |  |  |  |  |  |  |  |  |  |  | 
2 | CC1=C2N=C(C=C3N=C(C(C)=C4[N-]C(C(CC(N)=O)C4(C)CCC(=O)NCC(C)OP(=O)([O-])OC4C(CO)OC(n5cnc6cc(C)c(C)cc65)C4O)C4(C)N=C1C(CCC(N)=O)C4(C)CC(N)=O)C(CCC(N)=O)C3(C)C)C(CCC(N)=O)C2(C)CC(N)=O.NCC[S][Co+2] (centres unmarked) [CyaCbl] |  | induces their base-off configuration | 0.141 μmol/mg protein | 0.154 μmol/mg protein | 0.095 μmol/mg protein | 0.184 μmol/mg protein | 0.144 μmol/mg protein | 28.66 M⁻¹ s⁻¹ | <0.5 min | 0.217 μmol/mg protein | 0.369 μmol/mg protein | 0.208 μmol/mg protein | 0.194 μmol/mg protein | 0.189 μmol/mg protein | 0.114 μmol/mg protein | 0.215 μmol/mg protein | 0.190 μmol/mg protein | H2OCbl | H2OCbl | 2.1 min | Transport into the cells (cultured fibroblasts): transported successfully into the cells; Cytotoxicity (cultured fibroblasts): not cytotoxic; Product of the reaction [4]: H2OCbl^+; Reduction of MMA to the levels of healthy fibroblasts, compared with CNCbl [5]: far superior compared to CNCbl
3 | C/C1=C2N=C(/C=C3N=C(/C(C)=C4\[N-]C(C(CC(N)=O)C4(C)CCC(=O)NCC(C)OP(=O)([O-])OC4C(CO)OC(n5cnc6cc(C)c(C)cc65)C4O)C4(C)N=C1C(CCC(N)=O)C4(C)CC(N)=O)C(CCC(N)=O)C\3(C)C)C(CCC(N)=O)C/2(C)CC(N)=O.NC(CCC(=O)NC(C[S-])C(=O)NCC(=O)O)C(=O)O.[Co+3] (centres unmarked) [GSCbl, glutathionylcobalamin, reference compound] | 18.09 M⁻¹ s⁻¹ |  | 0.106 μmol/mg protein | 0.134 μmol/mg protein | 0.105 μmol/mg protein | 0.078 μmol/mg protein | 0.135 μmol/mg protein | 20.74 M⁻¹ s⁻¹ | 2.5 min | 0.223 μmol/mg protein | 0.167 μmol/mg protein | 0.052 μmol/mg protein | 0.198 μmol/mg protein | 0.316 μmol/mg protein | 0.269 μmol/mg protein | 0.204 μmol/mg protein | 0.275 μmol/mg protein | H2OCbl | H2OCbl | 9.8 min | Fold less proficient support of the CblC reaction than MPGCbl and CyaCbl ([4]; wild type and pathogenic variant Arg161Gly): 4-5 fold
4 | CC([S][Co+2])C(=O)NCC(=O)O.CC1=C2N=C(C=C3N=C(C(C)=C4[N-]C(C(CC(N)=O)C4(C)CCC(=O)NCC(C)OP(=O)([O-])OC4C(CO)OC(n5cnc6cc(C)c(C)cc65)C4O)C4(C)N=C1C(CCC(N)=O)C4(C)CC(N)=O)C(CCC(N)=O)C3(C)C)C(CCC(N)=O)C2(C)CC(N)=O (centres unmarked) [MPGCbl] |  | induces their base-off configuration | 0.120 μmol/mg protein | 0.121 μmol/mg protein | 0.116 μmol/mg protein | 0.096 μmol/mg protein | 0.148 μmol/mg protein | 39.71 M⁻¹ s⁻¹ | <0.5 min | 0.182 μmol/mg protein | 0.190 μmol/mg protein | 0.087 μmol/mg protein | 0.212 μmol/mg protein | 0.216 μmol/mg protein | 0.183 μmol/mg protein | 0.178 μmol/mg protein | 0.185 μmol/mg protein | H2OCbl | H2OCbl | 1.5 min | Transport into the cells (cultured fibroblasts): transported successfully into the cells; Cytotoxicity (cultured fibroblasts): not cytotoxic; Configuration in the absence of the CblC protein [8]: at least a fraction of this Cbl derivative may exist in its base-off configuration; Product of the reaction [4]: H2OCbl^+; Reduction of MMA to the levels of healthy fibroblasts, compared with CNCbl [5]: far superior compared to CNCbl
